18 compounds from ChEMBL document CHEMBL1137669, “BK Virus replication in vitro: limited effect of drugs interfering with viral uptake and intracellular transport” (Antimicrob Agents Chemother, 2007) can be followed below.

As a reminder, the pEC50 is the negative decadic logarithm of the EC50, by convention in mol/L. A word on the CC50: it is the concentration at which the toxic effect on the cells reaches its halfway point.

pEC50: −log10 of the molar value.

Data set [1] has as its system BK polyomavirus. The experiment in a line: Antiviral activity against BKV Gardner ATCC VR837 infected in human WI38 cells assessed as reduction in viral DNA level preincubated for 2 hrs before viral infection measured after 7 days by real time PCR assay. In kind it is functional, organism-based, Betapolyomavirus hominis, WI-38. For orientation: Real-time PCR tracks product formation cycle by cycle.

The nature of data set [2]: Cytotoxicity against human WI38 cells assessed as reduction in cellular DNA level preincubated for 2 hrs before viral infection measured after 7 days by real time PCR assay. In kind it is cell-based, WI-38. Particulars: for CC50 at 168 h: WI38 cells; call rule not given here.
Data set [3] can be described thus: Selectivity index, ratio of CC50 for human WI38 cells by conventional neutral red assay to EC50 for BKV Gardner ATCC VR837. In kind it is toxicity, cell-based, WI-38. Particulars: read-out: Ratio CC50/EC50.
A short description of data set [4]: Cytotoxicity against human WI38 cells assessed as reduction in cellular DNA level after 7 days by real time PCR assay. In kind it is cell-based, WI-38.
Data set [5] is described as follows: Selectivity index, ratio of CC50 for human WI38 cells after 7 days by real time PCR assay to EC50 for BKV Gardner ATCC VR837. In kind it is toxicity, cell-based, WI-38. Particulars: read-out: Ratio CC50/EC50.
The test system of data set [6] is BK polyomavirus. The experiment in a line: Antiviral activity against BKV Gardner ATCC VR837 infected in human WI38 cells assessed as reduction in viral DNA level after 7 days by real time PCR assay. Particulars: Betapolyomavirus hominis, WI-38, 168 h. The data set is classed as functional, organism-based.
Data set [7] is described as follows: Selectivity index, ratio of CC50 for human WI38 cells preincubated for 2 hrs before viral infection measured after 7 days by real time PCR assay to EC50 for BKV Gardner ATCC VR837. In kind it is toxicity, cell-based, WI-38. Particulars: for selectivity ratio at 168 h: WI38 cells, read-out: Ratio CC50/EC50.
A short description of data set [8]: Cytotoxicity against human WI38 cells by conventional neutral red assay. The data set is classed as cell-based, WI-38.
A short description of data set [9]: Cytotoxicity against human WI38 cells assessed as reduction in cellular DNA level at 6.25 uM preincubated for 2 hrs before viral infection measured after 7 days by real time PCR assay. The data set is classed as cell-based. Particulars: wi-38, 168 h.
Where [10] appears, read: Betapolyomavirus hominis, Gardner, WI-38.

`CO[C@H]1O[C@H](CO)[C@@H](O)[C@H](O)[C@@H]1O`: the pEC50 with BK polyomavirus [1] (setting [10]) was below 4.00. For the same compound, the CC50 at 168 h in [2] was above 100 µM.
For the compound `CCCCCCCCO[C@@H]1O[C@H](CO)[C@@H](O)[C@H](O)[C@H]1O`, in the data set on BK polyomavirus [1] (setting [10]), the pEC50 was below 4.00. Further, in [2], the CC50 at 168 h is above 100 µM.
With `CC(=O)OC[C@H]1OC[C@H](OC(C)=O)[C@@H](OC(C)=O)[C@H]1OC(C)=O`, the pEC50 in the data set on BK polyomavirus [1] (setting [10]) was below 4.00. Moreover, the CC50 at 168 h in data set [2] is above 100 µM.
For the compound `CC(=O)OC[C@H]1OC[C@H](OC(C)=O)[C@@H](OC(C)=O)[C@@H]1OC(C)=O`, the pEC50 in the data set with BK polyomavirus [1] (setting [10]) is below 4.00. For the same compound, in data set [2], the CC50 at 168 h is above 100 µM.
Taken in the same sequence, the figures for `COC(=O)[C@H]1O[C@@H](OC(C)=O)[C@H](OC(C)=O)[C@@H](OC(C)=O)[C@@H]1OC(C)=O` were below 4.00 and above 100 µM.
For the compound `CCCCCCCCCO[C@@H]1O[C@H](CO)[C@@H](O)[C@H](O)[C@H]1O`, the selectivity ratio in [3] was determined as 30.5. In addition, the CC50 at 168 h in [4] was found to be 114 µM; in [2] it was 78.3 µM. Further, the selectivity ratio at 168 h in [5] was 1.25; in data set [7] it was 16. For the same compound, the pEC50 in the data set with BK polyomavirus [6] was 4.01; in the data set with BK polyomavirus [1] (setting [10]), 5.20. Besides, the CC50 in data set [8] was determined as 126 µM.
Regarding `COC(=O)[C@H]1O[C@@H](O)[C@H](O)[C@@H](O)[C@H]1O`, in the data set on BK polyomavirus [1] (setting [10]), the pEC50 is below 4.00. Moreover, in data set [2], the CC50 at 168 h was above 100 µM.
As for `O=C(O)[C@H]1OC(O)[C@H](O)[C@@H](O)[C@@H]1O` (some centres undefined), the pEC50 in the data set with BK polyomavirus [1] (setting [10]) is below 4.00. In data set [2], the CC50 at 168 h was above 100 µM.
For `O=C1OC([C@@H](O)CO)[C@H](O)[C@@H]1O` (some centres undefined), the pEC50 in the data set with BK polyomavirus [1] (setting [10]) is below 4.00. Moreover, the CC50 at 168 h in data set [2] was above 100 µM.
With `C[C@@H]1[C@H](O)[C@@H](C)/C=C/C=C/C=C/C=C/C=C/C=C/C=C/[C@H](O[C@@H]2O[C@H](C)[C@@H](O)[C@H](N)[C@@H]2O)C[C@@H]2O[C@](O)(C[C@@H](O)C[C@@H](O)[C@H](O)CC[C@@H](O)C[C@@H](O)CC(=O)O[C@H]1C)C[C@H](O)[C@H]2C(=O)O` [AMPHOTERICIN B], the selectivity ratio at 168 h in [7] stood at 2.99. The outcome in data set [9] was Active. Also, the pEC50 with BK polyomavirus [1] (setting [10]) was 5.78. The CC50 at 168 h in [2] is 4.99 µM.
On to `CCN(CC)CCCC(C)Nc1ccnc2cc(Cl)ccc12` (centres undefined) [CHLOROQUINE], for which the selectivity ratio at 168 h in data set [7] is 5.32. In addition, the pEC50 in the data set on BK polyomavirus [1] (setting [10]) is 5.77. Moreover, in data set [2], the cytotoxic concentration (CC50) at 168 h was determined as 8.5 µM.
As for `CN(C)CCCN1c2ccccc2Sc2ccc(Cl)cc21` [CHLORPROMAZINE], the selectivity ratio at 168 h in data set [7] came to 1.98. Besides, in the data set with BK polyomavirus [1] (setting [10]), the pEC50 is 5.12. In addition, the cytotoxic concentration (CC50) at 168 h in [2] was 10.3 µM.
For `CN1CCN(C2=Nc3cc(Cl)ccc3Nc3ccccc32)CC1` [CLOZAPINE], the selectivity ratio at 168 h in data set [7] worked out at 4.9. Further, the pEC50 in the data set with BK polyomavirus [1] (setting [10]) was 4.63. Also, the CC50 at 168 h in [2] was 40 µM.
On to `COc1cc2c(c(OC)c1OC)-c1ccc(OC)c(=O)cc1[C@@H](NC(C)=O)CC2` [COLCHICINE], for which, in data set [7], the selectivity ratio at 168 h was found to be 3.63. In the data set on BK polyomavirus [1] (setting [10]), the pEC50 was 7.66. In addition, the CC50 at 168 h in [2] came out at 0.0476 µM.
Consider `Cc1cc2c(s1)Nc1ccccc1N=C2N1CCN(C)CC1` [OLANZAPINE], for which, in the data set with BK polyomavirus [1] (setting [10]), the pEC50 was below 4.00. In data set [2], the CC50 at 168 h was above 100 µM.
In the case of `Cc1nc2n(c(=O)c1CCN1CCC(c3noc4cc(F)ccc34)CC1)CCCC2` [RISPERIDONE], in the data set with BK polyomavirus [1] (setting [10]), the pEC50 is below 4.60. Further, the CC50 at 168 h in data set [2] amounted to 25 µM.
With `O=C1Cc2cc(CCN3CCN(c4nsc5ccccc45)CC3)c(Cl)cc2N1` [ZIPRASIDONE], in the data set on BK polyomavirus [1] (setting [10]), the pEC50 was below 4.00. Moreover, the cytotoxic concentration (CC50) at 168 h in [2] is above 100 µM.
Turning to NYSTATIN, in data set [7] (wi-38, 168 h), the “Ratio CC50/EC50” value came out at 5.13. In addition, the pEC50 with BK polyomavirus [1] (wi-38) was 5.01. Further, in data set [2] (wi-38, 168 h), the CC50 turned out to be 48.6 µM.
